Experimental findings from ChEMBL document CHEMBL5325471, “Identification of new modulator of DNA repairing pathways based on natural product (±)-peharmaline A” (Bioorg Med Chem, 2023) are described below.

The test system of series [1] is HCT-116. The series is described as follows: Induction of cell cycle arrest in human HCT-116 cells assessed as accumulation of cells at G2 phase at 0.5 uM incubated for 24 hrs by RNase/PI staining-based FACS flow cytometry analysis (reference value: 33 %). The format is functional. Background: In flow cytometry, cells or beads pass a laser one at a time.
The nature of series [2]: Clearance in BALB/c mouse at 20 mg/kg, ip measured upto 24 hrs by LC-MS/MS analysis. The format is ADME, organism-based. The following applies: in vivo.
Series [3] in a line: Cmax in BALB/c mouse at 20 mg/kg, ip measured upto 24 hrs by LC-MS/MS analysis. The format is ADME, organism-based. More on the design: dose 20 mg/kg, time < 24 hrs, route ip. The following applies: in vivo.
The test system of series [4] is HCT-116. The series is described as follows: Induction of DNA damage in human HCT-116 cell assessed as comet tail formation at 4 uM incubated for 24 hrs by EtBr-based alkaline Comet assay (Rvb= 2.99 %). The format is functional.
The next series relates to 4T1. The series is described as follows: Antitumor activity against mouse 4T1 cells implanted in BALB/c mouse assessed as reduction in tumor weight at 20 mg/kg, ip administered every alternate day for 2 weeks relative to control. Further details: scale not given: the % may be the effect or the level left. The format is functional.
The next series concerns A549. The series can be described thus: Antiproliferative activity against human A549 cells assessed as cell growth inhibition incubated for 44 hrs by MTT assay. The format is functional, cell-based. The conditions noted are these: A549, 44 h. In general terms: Tetrazolium assays rely on reduction of a dye to a coloured formazan, in cell work by metabolically active cells.

In series [5] the test system is HCT-116. The series can be described thus: Induction of DNA damage in human HCT-116 cell assessed as increase in olive tail moment at 1 uM incubated for 24 hrs by EtBr-based alkaline Comet assay (Rvb= 0.26%). The format is functional.
In another series the test system is MCF7. The series is described as follows: Antiproliferative activity against human MCF7 cells assessed as cell growth inhibition incubated for 44 hrs by MTT assay. The format is functional, cell-based. The conditions noted are these: MCF7, 44 h.
Series [6] deals with HCT-116. The series can be described thus: Induction of DNA damage in human HCT-116 cells assessed as micronuclei formation at 0.5 to 2 uM incubated for 24 hrs by DAPI staining based immunofluorescence analysis. The format is functional, cell-based. The following applies: dose 0.5-2 µM.
Series [7] in a line: AUC (0 to t) in BALB/c mouse at 20 mg/kg, ip measured upto 24 hrs by LC-MS/MS analysis. The format is ADME, organism-based. More on the design: time < 24 hrs, dose 20 mg/kg, route ip. The following applies: in vivo.
Series [8] has as its system HCT-116. The series is described as follows: Antiproliferative activity against human HCT-116 cells assessed as cell growth inhibition incubated for 44 hrs by MTT assay. The format is functional, cell-based. The conditions noted are these: HCT-116, 44 h.
In series [9] the test system is HCT-116. The series can be described thus: Induction of DNA damage in human HCT-116 cell assessed as increase in olive tail moment at 2 uM incubated for 24 hrs by EtBr-based alkaline Comet assay (Rvb= 0.26%). The format is functional.

The structures appear in SMILES notation. Activity calls are given as the source filed them. No cut-off for these calls is given here.

Regarding `COC(=O)[C@]1([C@H]2CCn3c2nc2ccccc2c3=O)NCCc2c1[nH]c1ccccc21` (racemic), the Activity with HCT-116 [1] is listed as 24%; in the series with HCT-116 [4], 61.4%; in the series on 4T1 it was 63%; with HCT-116 [5], 9.53%; in the series on HCT-116 [9], 14.05%. In addition, the CL/F in series [2] is 30 mL/min/kg. Besides, the concentration in series [3] peaked (Cmax) at 4490 ng/mL. For the same molecule, the IC50 in the series with A549 was determined as 1680 nM; in the series on MCF7, 1410 nM; with HCT-116 [8], 1020 nM. In addition, in the series with HCT-116 [6], the result was Active. In [7], this molecule came in with an AUC(0-t) at 24 h of 11000 ng·h/mL.

Usually CL/F stands for clearance divided by bioavailability, as obtained after extravascular dosing. As usually defined, the Cmax is the maximum level reached in the sampled fluid or tissue. The term IC50 denotes the concentration that gives 50% inhibition. By AUC(0-t) is commonly meant the area under the concentration-time curve up to a stated or last time point.
